This passage reports Ki results from US20150031674A1, “SERINE/THREONINE KINASE INHIBITORS” (GENENTECH, INC., priority 2013, published 2015).

The Ki is the dissociation constant of the complex between target and ligand, obtained from inhibition or displacement.

The target of this experiment is human recombinant PAK1-KD protein (Homo sapiens, UniProt Q13153). In words: PAK1-KD (Kinase Domain) IC50 Zlyte Assay (FRET peptide substrate phosphorylation). Particulars: Z'-LYTE, Biological Example 1.
human recombinant PAK1-KD protein, sequence (Q13153 270-521 limits assumed): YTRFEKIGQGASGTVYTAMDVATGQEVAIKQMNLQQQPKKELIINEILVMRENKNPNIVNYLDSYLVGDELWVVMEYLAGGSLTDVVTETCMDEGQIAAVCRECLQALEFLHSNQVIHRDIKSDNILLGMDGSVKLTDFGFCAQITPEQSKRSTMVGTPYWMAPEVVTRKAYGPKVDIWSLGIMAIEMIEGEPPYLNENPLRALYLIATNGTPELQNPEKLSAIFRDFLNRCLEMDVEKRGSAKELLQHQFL
Turning to `CNc1ncc2cc(-c3ccc(-c4cncc(C)n4)cc3Cl)c(=O)n(CCN3CCOCC3)c2n1` [Example I-158, 6-[2-chloro-4-(6-methylpyrazin-2-yl)phenyl]-2-(methylamino)-8-(2-morpholinoethyl)pyrido[2,3-d]pyrimidin-7-one], the Ki was 78.2 nM.

For the compound `Cc1cccc(-c2ccc(-c3cc4cnc(NC5COC5)nc4n(C[C@H]4CNCCO4)c3=O)c(Cl)c2)n1` [Example I-159, 6-[2-Chloro-4-(6-methyl-2-pyridyl)phenyl]-8-[[(2R)-morpholin-2-yl]methyl]-2-(oxetan-3-ylamino)pyrido[2,3-d]pyrimidin-7-one], the Ki was 10.8 nM.

With `CCNc1ncc2cc(-c3ccc(-c4cccc(C)n4)cc3Cl)c(=O)n(CCS(=O)(=O)C3CNC3)c2n1` [Example I-160, 8-[2-(azetidin-3-ylsulfonyl)ethyl]-6-[2-chloro-4-(6-methyl-2-pyridyl)phenyl]-2-(ethylamino)pyrido[2,3-d]pyrimidin-7-one], the Ki was found to be 10.3 nM. `Cc1cccc(-c2ccc(-c3cc4cnc(NC5COC5)nc4n(CCCS(N)(=O)=O)c3=O)c(C)c2)n1` [Example I-161, 3-[6-[2-methyl-4-(6-methyl-2-pyridyl)phenyl]-2-(oxetan-3-ylamino)-7-oxo-pyrido[2,3-d]pyrimidin-8-yl]propane-1-sulfonamide]: the Ki came out at 22 nM.

As to `CNc1ncc2cc(-c3ccc(-c4cccc(C)n4)cc3Cl)c(=O)n(CS(=O)(=O)N3CCNCC3)c2n1` [Example I-162, 6-[2-chloro-4-(6-methyl-2-pyridyl)phenyl]-2-(methylamino)-8-(piperazin-1-ylsulfonylmethyl)pyrido[2,3-d]pyrimidin-7-one], the Ki is 14.7 nM.

Regarding `Cc1cncc(-c2ccc(-c3cc4cnc(N)nc4n(C[C@H]4OC[C@H](N)CO4)c3=O)c(Cl)c2)n1` [Example I-163, 2-amino-8-[(5-amino-1,3-dioxan-2-yl)methyl]-6-[2-chloro-4-(6-methylpyrazin-2-yl)phenyl]pyrido[2,3-d]pyrimidin-7-one], the inhibition constant Ki stood at 26.9 nM. Regarding `Cc1cncc(-c2ccc(-c3cc4cnc(NC5COC5)nc4n(C[C@H]4OC[C@H](N)CO4)c3=O)c(Cl)c2)n1` [Example I-164, 8-[(5-amino-1,3-dioxan-2-yl)methyl]-6-[2-chloro-4-(6-methylpyrazin-2-yl)phenyl]-2-(oxetan-3-ylamino)pyrido[2,3-d]pyrimidin-7-one], the Ki came to 9.9 nM. Regarding `CNc1ncc2cc(-c3ccc(-c4cccc(C)n4)cc3C)c(=O)n(CCN3CCOCC3)c2n1` [Example I-165, 2-(Methylamino)-6-[2-methyl-4-(6-methyl-2-pyridyl)phenyl]-8-(2-morpholinoethyl)pyrido[2,3-d]pyrimidin-7-one], the Ki is 16.7 nM. `Cc1cccc(-c2ccc(-c3cc4cnc(NC5COC5)nc4n(CCS(N)(=O)=O)c3=O)c(C)c2)n1` [Example I-166]: the Ki turned out to be 17 nM.

Consider `Cc1cccc(-c2ccc(-c3cc4cnc(NC5COC5)nc4n(CCCO)c3=O)c(C)c2)n1` [Example I-168, 8-(3-hydroxypropyl)-6-[2-methyl-4-(6-methyl-2-pyridyl)phenyl]-2-(oxetan-3-ylamino)pyrido[2,3-d]pyrimidin-7-one], for which the Ki was 15.7 nM.

Regarding `CNc1ncc2cc(-c3ccc(-c4cccc(C)n4)cc3Cl)c(=O)n(CC3(C#N)CCNCC3)c2n1` [Example I-169, 4-[[6-[2-chloro-4-(6-methyl-2-pyridyl)phenyl]-2-(methylamino)-7-oxo-pyrido[2,3-d]pyrimidin-8-yl]methyl]piperidine-4-carbonitrile], the Ki stood at 12 nM.

As to `CNc1ncc2cc(-c3ccc(-c4cccc(C)n4)cc3C)c(=O)n(C[C@H]3OC[C@H](N)CO3)c2n1` [Example I-170, 8-[(5-Amino-1,3-dioxan-2-yl)methyl]-2-(methylamino)-6-[2-methyl-4-(6-methyl-2-pyridyl)phenyl]pyrido[2,3-d]pyrimidin-7-one], the Ki amounted to 5.3 nM. The result for `CNc1ncc2cc(-c3ccc(-c4cccc(C)n4)cc3C)c(=O)n(C[C@@H]3CNCCO3)c2n1` [Example I-171, 6-(2-methyl-4-(6-methylpyridin-2-yl)phenyl)-2-(methylamino)-8-[[(2S)-morpholin-2-yl]methyl]pyrido[2,3-d]pyrimidin-7(8H)-one] reads 5 nM. Consider `CNc1ncc2cc(-c3ccc(-c4cncc(C)n4)cc3Cl)c(=O)n(CC[C@H]3OC[C@@H](N)CO3)c2n1` [Example I-172, 8-[2-(5-amino-1,3-dioxan-2-yl)ethyl]-6-[2-chloro-4-(6-methylpyrazin-2-yl)phenyl]-2-(methylamino)pyrido[2,3-d]pyrimidin-7-one], for which the Ki is 11.9 nM. Regarding `CNc1ncc2cc(-c3ccc(-c4cccc(C)n4)cc3Cl)c(=O)n(C[C@@H]3CNCCO3)c2n1` [Example I-173, 6-[2-chloro-4-(6-methyl-2-pyridyl)phenyl]-2-(methylamino)-8-[[(2S)-morpholin-2-yl]methyl]pyrido[2,3-d]pyrimidin-7-one], the Ki is 12.9 nM. The result for `CNc1ncc2cc(-c3ccc(-c4cccc(C)n4)cc3C)c(=O)n(CCS(=O)(=O)CCN)c2n1` [Example I-174, 8-[2-(2-aminoethylsulfonyl)ethyl]-2-(methylamino)-6-[2-methyl-4-(6-methyl-2-pyridyl)phenyl]pyrido[2,3-d]pyrimidin-7-one] reads 7.2 nM.

For `CNc1ncc2cc(-c3ccc(-c4cccc(C)n4)cc3Cl)c(=O)n(CC3CCN(C)CC3)c2n1` [Example I-175, 6-[2-chloro-4-(6-methyl-2-pyridyl)phenyl]-2-(methylamino)-8-[(1-methyl-4-piperidyl)methyl]pyrido[2,3-d]pyrimidin-7-one], the Ki was determined as 19.8 nM. With `CNc1ncc2cc(-c3ccc(-c4cccc(C)n4)cc3Cl)c(=O)n(C[C@H]3[C@@H]4CN(C)C[C@@H]43)c2n1` [Example I-176, 6-[2-chloro-4-(6-methyl-2-pyridyl)phenyl]-2-(methylamino)-8-[[(1R,5S)-3-methyl-3-azabicyclo[3.1.0]hexan-6-yl]methyl]pyrido[2,3-d]pyrimidin-7-one], the Ki came to 11 nM. As to `CNc1ncc2cc(-c3ccc(-c4cncc(C)n4)cc3Cl)c(=O)n(CC[C@H]3OC[C@H](N)CO3)c2n1` [Example I-177, 8-[2-(5-amino-1,3-dioxan-2-yl)ethyl]-6-[2-chloro-4-(6-methylpyrazin-2-yl)phenyl]-2-(methylamino)pyrido[2,3-d]pyrimidin-7-one], the Ki was determined as 6.82 nM. `CNc1ncc2cc(-c3ccc(-c4cncc(C)n4)cc3Cl)c(=O)n(C[C@H]3OC[C@H](NC)CO3)c2n1` [Example I-178, 6-[2-Chloro-4-(6-methylpyrazin-2-yl)phenyl]-2-(methylamino)-8-[[5-(methylamino)-1,3-dioxan-2-yl]methyl]pyrido[2,3-d]pyrimidin-7-one]: the Ki was 13.5 nM. Turning to `CNc1ncc2cc(-c3ccc(-c4csc(C)n4)cc3Cl)c(=O)n(C[C@@H]3CNCCO3)c2n1` [Example I-179, 6-[2-chloro-4-(2-methylthiazol-4-yl)phenyl]-2-(methylamino)-8-[[(2S)-morpholin-2-yl]methyl]pyrido[2,3-d]pyrimidin-7-one], the inhibition constant (Ki) worked out at 66.6 nM. As for `CNc1ncc2cc(-c3ccc(-c4cncc(C)n4)cc3Cl)c(=O)n(C3CCS(=N)(=O)CC3)c2n1` (stereo not drawn) [Example I-181, 6-[2-chloro-4-(6-methylpyrazin-2-yl)phenyl]-8-(1-imino-1-oxo-thian-4-yl)-2-(methylamino)pyrido[2,3-d]pyrimidin-7-one], the figure is 110 nM. Take `CNc1ncc2cc(-c3ccc(-c4csc(C)n4)cc3Cl)c(=O)n(C[C@H]3CNCCO3)c2n1` [Example I-182, 6-[2-chloro-4-(2-methylthiazol-4-yl)phenyl]-2-(methylamino)-8-[[(2R)-morpholin-2-yl]methyl]pyrido[2,3-d]pyrimidin-7-one]: the Ki is 44.7 nM.

With `CNc1ncc2cc(-c3ccc(-c4cccc(C)n4)cc3Cl)c(=O)n(C[C@@H]3CN(C)CCO3)c2n1` [Example I-183, 6-[2-chloro-4-(6-methyl-2-pyridyl)phenyl]-2-(methylamino)-8-[[(2S)-4-methylmorpholin-2-yl]methyl]pyrido[2,3-d]pyrimidin-7-one], the Ki was 26.8 nM. Regarding `CNc1ncc2cc(-c3ccc(-c4csc(C5CC5)n4)cc3Cl)c(=O)n(C[C@@H]3CNCCO3)c2n1` [Example I-184, 6-[2-chloro-4-(2-cyclopropylthiazol-4-yl)phenyl]-2-(methylamino)-8-[[(2S)-morpholin-2-yl]methyl]pyrido[2,3-d]pyrimidin-7-one], the Ki amounted to 43.1 nM.

On to `CNc1ncc2cc(-c3ccc(-c4csc(C5CC5)n4)cc3Cl)c(=O)n(C[C@H]3CNCCO3)c2n1` [Example I-185, 6-[2-chloro-4-(2-cyclopropylthiazol-4-yl)phenyl]-2-(methylamino)-8-[[(2R)-morpholin-2-yl]methyl]pyrido[2,3-d]pyrimidin-7-one], for which the Ki came to 47.3 nM. Consider `CNc1ncc2cc(-c3ccc(-c4cccc(C)n4)cc3C)c(=O)n(CC3C4CN(C)CC43)c2n1` (stereo not drawn) [Example I-186, 2-(methylamino)-8-[(3-methyl-3-azabicyclo[3.1.0]hexan-6-yl)methyl]-6-[2-methyl-4-(6-methyl-2-pyridyl)phenyl]pyrido[2,3-d]pyrimidin-7-one], for which the Ki was 11.9 nM.

Consider `Cc1cccc(-c2ccc(-c3cc4cnc(NC5COC5)nc4n(C[C@@H]4CNCCO4)c3=O)c(Cl)c2)n1` [Example I-188, 6-[2-chloro-4-(6-methyl-2-pyridyl)phenyl]-8-[[(2S)-morpholin-2-yl]methyl]-2-(oxetan-3-ylamino)pyrido[2,3-d]pyrimidin-7-one], for which the inhibitory constant (Ki) was 8.1 nM.

On to `CNc1ncc2cc(-c3ccc(-c4nc(C)cs4)cc3Cl)c(=O)n(C[C@H]3CNCCO3)c2n1` [Example I-189, 6-[2-chloro-4-(4-methylthiazol-2-yl)phenyl]-2-(methylamino)-8-[[(2R)-morpholin-2-yl]methyl]pyrido[2,3-d]pyrimidin-7-one], for which the Ki is 25.8 nM. Take `CNc1ncc2cc(-c3ccc(-c4csc(C)n4)cc3Cl)c(=O)n(C[C@H]3OC[C@H](N)CO3)c2n1` [Example I-190, 8-[(5-amino-1,3-dioxan-2-yl)methyl]-6-[2-chloro-4-(2-methylthiazol-4-yl)phenyl]-2-(methylamino)pyrido[2,3-d]pyrimidin-7-one]: the inhibition constant Ki was found to be 15.2 nM.
